The source of these data is patent publication US6413974B1, “6,9,-disubstituted 2-[trans-(4-aminocyclohexyl) amino] purines” (Aventis Pharmaceuticals Inc., priority 1998, dated 2002).

“And” between values parts separate entries of the source, which are not always exact repeats. Equal values may be shown once. Where a name gives a salt, the structure may show the parent alone. Read-outs that look alike come from different tables or passages of the source.

The target in one experiment is T1, cdk2/cyclin E (Homo sapiens, UniProt P24941).
T1 construct: made in house; host or cells: insect cells (baculovirus co-infection)
Kind of experiment: Cyclin-Dependent Kinase 2 Assay (cdk-2 inhibition). The format is biochemical. The conditions noted are these: GST-Rb substrate, 30 min at 30° C. How it is done:
(§1) The transformed bacteria were grown overnight to saturation, then diluted in YT broth and incubated at 37° C. for 2 h. The protein was induced by incubation with 0.1 mM isopropylthioglycoside for 3 h. Following sedimentation by centrifugation, the cells were lysed by sonication in STE buffer ([…] NaCl, 10 mM Tris, pH 8.0, 1 mM EDTA) containing 10% sarkosyl. Particulate matter was removed by centrifugation and the lysate was incubated with glutathione-Sepharose at 4° C. The beads were washed with kinase buffer and then quantitation of Coomassie blue-stained proteins separated by SDS-PAGE was performed using a protein standard of known concentration.
(§2) Pre-wet Millipore Multiscreen 96-well filter plates (0.65 μm Durapore filters) with 200 μl kinase buffer (50 mM HEPES, pH 7.5, 10 mM MgCl2, 1 mM EGTA). GST-Rb (0.5 μg) bound to glutathione-Sepharose beads is added in 50 μl per well and the solution removed by application of vacuum. […] Add 0.1 μg cdk4/cyclin D1 (insect cell lysate) to initiate assay. Incubate 30 min at 37° C. Terminate reaction by filtration on Millipore Vacuum Manifold. Wash four times with TNEN (20 mM Tris, pH 8.0, 100 mM Na Cl, 1 mM EDTA, 0.5% nonidet P-40). After drying the plates at room temperature, the filter plates were placed in adapter plates (Packard) and 40 μl of Microscint-O® (Packard) was added to each well. Top Seal A film was used to cover the plates before counting in a Top Count Scintillation Counter.
GST-Rb as described above for cdk4/cyclin D1
Assay conditions for cdk2/cyclin E were identical to those for cdk4/cyclin D1 including the substrate. The concentration of recombinant cdk2/cyclin E in the assay was 0.1 μg per 100 μl assay. Incubation was for 30 min at 30° C.

A further experiment has as its target T2, cdk4/cyclin D1 (Homo sapiens, UniProt P11802).
T2 construct: made in house; host or cells: Sf9 insect cells (Bac-to-Bac baculovirus, pFastBac)
Put plainly: Cyclin-dependent kinase 4 Assay. The format is biochemical. The conditions noted are these: cdk4/cyclin D1, GST-Rb substrate, 10 μM ATP, 30 min at 37° C.; read-out: CDK4 Inhibition IC50. How it is done: The IC50 values for cdk-4 inhibition were by the following method:
as §1
The cDNA for human cyclin D1 was cloned by RT PCR using […] from MCF-7 cells. […] Bacmid DNA was used to transfect Sf9 insect cells to produce recombinant virus. Following plaque purification of the virus, the viral preparations were amplified until high titer stocks were acheived.
Lysates were prepared by lysis of Sf9 cells coinfected with cdk4 and cyclin D1 in 50 mM HEPES, pH 7.5, 10 mM MgCl2, 1 mM DTT, 0.1 mM phenylmethylsulfonyl fluoride, 5 μg/ml aprotinin, and 5 μg/ml leupeptin using a PARR bomb under 500 p.s.i nitrogen pressure for 5 min at 4° C. Insoluble material was sedimented at 10,000×g for 20 min at 4° C. Glycerol was added to the supernatant to 10% and stored at −80° C. in aliquots.
as §2

The test system of the next experiment is MDA-MB-231. Kind of experiment: In vitro tumor cell proliferation, MDA-MB-231. The class given is cell-based, human. The note with it: read-out: In vitro Tumor Cell Proliferation (IC50, μM) Breast MDA-MB-231. How it is done:
(§3) The proliferation of tumor cells was measured using a sulforhodamine B assay as described in Skehan, P., et al., J. Natl. Cancer Inst. […] Tumor cells were harvested with trypsin-EDTA, cells that excluded trypan blue were counted, added to 96-well plates and incubated overnight at 37° C. Drug was added to the wells following dilution in culture medium. Three days later, the medium was removed and replenished with medium containing fresh drug and incubated an additional 4 days. The cells were then fixed with 0.1 ml 10% trichloroacetic acid for 60 min at 4° C. The plates were rinsed five times with tap water, air-dried and stained for 30 min with 0.4% sulforhodamine B in 1% acetic acid and air-dried.
(§4) Alternatively, the CyQUANT cell proliferation assay was used to quantify tumor cell proliferation. Tumor cells were harvested with trypsin-EDTA, cells that excluded trypan blue were counted, added to 96-well plates and incubated overnight at 37° C. Drug was added to the wells following dilution in culture medium. Three days later the medium was removed and the plates frozen at −80° C. for at least 30 minutes.

The next experiment has as its system MDA-MB-435. Kind of experiment: In vitro tumor cell proliferation, MDA-MB-435. The conditions noted are these: read-out: In vitro Tumor Cell Proliferation (IC50, μM) Breast MDA-MB-435. The format is cell-based, human. As for the experimental part: as §3, §4
For another experiment, the system named is HT-29. Put plainly: In vitro tumor cell proliferation, HT-29. The format is cell-based, human. The note with it: read-out: In vitro Tumor Cell Proliferation (IC50, μM) Colon HT-29 (converted). How it is done:
as §3, §4
HT-29 is a human colon adenocarcinoma, moderately well-differentiated grade II (HTB 38);

The next experiment has as its system Colo-205. Kind of experiment: In vitro tumor cell proliferation, Colo-205. The note with it: read-out: In vitro Tumor Cell Proliferation (IC50, μM) Colon Colo-205. The format is cell-based, human. How it is done: as §3, §4
In another experiment the test system is A549. Kind of experiment: In vitro tumor cell proliferation, A549. The class given is cell-based, human. The conditions noted are these: read-out: In vitro Tumor Cell Proliferation (IC50, μM) Lung A549. How it is done:
as §3, §4

The subject of another experiment is DMS-114. Put plainly: In vitro tumor cell proliferation, DMS-114. The format is cell-based, human. The conditions noted are these: read-out: In vitro Tumor Cell Proliferation (IC50, μM) Lung DMS-114. How it is done: as §3, §4
The subject of the next experiment is DU 145. Kind of experiment: In vitro tumor cell proliferation, DU 145. The format is cell-based, human. The note with it: read-out: In vitro Tumor Cell Proliferation (IC50, μM) Prostate DUI45. As for the experimental part: as §3, §4
In the next experiment the test system is PC-3. Kind of experiment: In vitro tumor cell proliferation, PC-3. The class given is cell-based, human. The conditions noted are these: read-out: In vitro Tumor Cell Proliferation (IC50, μM) Prostate PC-3. How it is done:
as §3, §4

Where [1] appears, read: Homo sapiens, MDA-MB-231, values marked * (mark not explained).
Where [2] appears, read: values marked * (mark not explained), dihydrochloride.
Where [3] appears, read: Homo sapiens, HT-29, values marked * (mark not explained).
The mark [4] stands for this setting: Homo sapiens, COLO 205, values marked * (mark not explained).
The mark [5] stands for this setting: Homo sapiens, A549, values marked * (mark not explained).
[6] abbreviates: Homo sapiens, DMS-114, values marked * (mark not explained).
Where [7] appears, read: Homo sapiens, DU-145, values marked * (mark not explained).
Where [8] appears, read: Homo sapiens, MDA-MB-435, values marked * (mark not explained).
Where [9] appears, read: Homo sapiens, PC-3, values marked * (mark not explained).

T2 sequence (P11802 whole entry): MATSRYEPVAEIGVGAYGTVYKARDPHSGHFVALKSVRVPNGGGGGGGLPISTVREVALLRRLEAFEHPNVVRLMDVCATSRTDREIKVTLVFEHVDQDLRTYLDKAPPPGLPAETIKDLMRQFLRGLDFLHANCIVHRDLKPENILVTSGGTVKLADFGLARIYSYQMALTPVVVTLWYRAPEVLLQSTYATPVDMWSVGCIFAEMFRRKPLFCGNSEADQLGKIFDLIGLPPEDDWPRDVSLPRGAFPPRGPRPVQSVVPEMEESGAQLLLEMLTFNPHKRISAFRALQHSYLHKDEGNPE
T2 sequence (P24385 whole entry partner): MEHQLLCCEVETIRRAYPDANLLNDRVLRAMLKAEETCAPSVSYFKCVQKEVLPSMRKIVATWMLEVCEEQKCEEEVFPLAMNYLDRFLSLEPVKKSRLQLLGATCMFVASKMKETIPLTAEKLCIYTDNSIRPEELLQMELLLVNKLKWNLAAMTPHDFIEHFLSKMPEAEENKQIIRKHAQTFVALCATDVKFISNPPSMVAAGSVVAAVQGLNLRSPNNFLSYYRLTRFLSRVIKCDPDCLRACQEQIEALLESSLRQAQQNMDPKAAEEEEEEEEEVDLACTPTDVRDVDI

Turning to `N[C@H]1CC[C@H](Nc2nc(NCCc3c[nH]c4ccccc34)c3ncn(C4CCCC4)c3n2)CC1` [Example 2, 2-[Trans-(4-aminocyclohexyl)amino]-6-[(3-indolyl)-2-ethylamino]-9-cyclopentylpurine dihydrochloride], the IC50 is 0.14 µM at cdk2/cyclin E; 0.6 µM and 0.9 µM on cdk4/cyclin D1; 6.5 µM with MDA-MB-231 (setting [1]); 6.6 µM with MDA-MB-231 (setting [2]); 11 µM with MDA-MB-435 (setting [2]); 10 µM in the experiment with HT-29 (setting [3]). Also, the IC50 turned out to be 11 µM in the experiment on Colo-205 (setting [4]); 8.6 µM with Colo-205 (setting [2]); 11 µM in the experiment with A549 (setting [5]); 8.7 µM in the experiment on DMS-114 (setting [6]); 10 µM with DMS-114 (setting [2]); 12 µM in the experiment with DU 145 (setting [7]). Moreover, the IC50 in the experiment with DU 145 (setting [2]) was determined as 6.7 µM.
In the case of `N[C@H]1CC[C@H](Nc2nc(NCCc3ccccn3)c3ncn(C4CCCC4)c3n2)CC1` [Example 12, 2-[Trans-(4-aminocyclohexyl)amino]-6-[2-(2-pyridyl)ethylamino]-9-cyclopentylpurine dihydrochloride], the IC50 against cdk2/cyclin E was 0.22 µM; on cdk4/cyclin D1, 0.3 µM and 0.2 µM; with MDA-MB-231 (setting [1]), 6 µM; with MDA-MB-435 (setting [8]), 8.7 µM; in the experiment with MDA-MB-435 (setting [2]), 9.4 µM; in the experiment on HT-29 (setting [3]), 11 µM. The IC50 in the experiment on HT-29 (setting [2]) was 12 µM; in the experiment with Colo-205 (setting [4]), 6.4 µM; in the experiment on Colo-205 (setting [2]), 6.2 µM; with DMS-114 (setting [6]), 15 µM; in the experiment on DMS-114 (setting [2]) it was 11 µM; in the experiment with PC-3 (setting [9]) it was 7.9 µM. For the same molecule, the results for the IC50 with PC-3 (setting [2]) and in the experiment on DU 145 (setting [7]) were 6.1 µM and 10 µM, respectively.
As to `N[C@H]1CC[C@H](Nc2nc(NNCCO)c3ncn(C4CCCC4)c3n2)CC1` [Example 14, 2-[Trans-(4-aminocyclohexyl)amino]-6-[2-hydroxyethylhydrazino]-9-cyclopentylpurine dihydrochloride], the IC50 on cdk2/cyclin E is 0.046 µM; at cdk4/cyclin D1, 0.058 µM and 0.067 µM; in the experiment with MDA-MB-231 (setting [1]), 19 µM; in the experiment with MDA-MB-231 (setting [2]), 22 µM; in the experiment with MDA-MB-435 (setting [8]) it was 44 µM; in the experiment with MDA-MB-435 (setting [2]) it was 27 µM. Further, the IC50 in the experiment on HT-29 (setting [3]) was 34 µM; in the experiment on HT-29 (setting [2]), 29 µM; in the experiment with Colo-205 (setting [4]) it was 17 µM; in the experiment with Colo-205 (setting [2]), 16 µM; in the experiment on A549 (setting [5]), 24 µM; in the experiment with A549 (setting [2]), 15 µM. Moreover, the IC50 with DMS-114 (setting [6]) was found to be 22 µM; in the experiment on DMS-114 (setting [2]) it was 20 µM; in the experiment on DU 145 (setting [7]), 17 µM; in the experiment on DU 145 (setting [2]) it was 21 µM.
On to `N[C@H]1CC[C@H](Nc2nc(NCc3nc4ccccc4[nH]3)c3ncn(C4CCCC4)c3n2)CC1` [Example 19, 2-[Trans-(4-aminocyclohexyl)amino]-6-[(2-benzimidazolyl)methylamino]-9-cyclopentylpurine dihydrochloride], for which the IC50 was 0.35 µM on cdk2/cyclin E; 0.05 µM and 0.1 µM at cdk4/cyclin D1; 1.9 µM in the experiment on MDA-MB-231 (setting [1]); 1.7 µM in the experiment on MDA-MB-231 (setting [2]); 2.7 µM with MDA-MB-435 (setting [8]); 2.3 µM with MDA-MB-435 (setting [2]). In addition, the IC50 in the experiment on HT-29 (setting [3]) was 2.7 µM; in the experiment on HT-29 (setting [2]), 2 µM; in the experiment on Colo-205 (setting [4]), 1.3 µM; with Colo-205 (setting [2]), 1.4 µM; in the experiment on DMS-114 (setting [6]), 2.7 µM; in the experiment with DMS-114 (setting [2]) it was 2.9 µM. Moreover, the IC50 worked out at 1.2 µM in the experiment with PC-3 (setting [9]), 1.5 µM in the experiment on PC-3 (setting [2]), 6.4 µM with DU 145 (setting [7]) and 6.1 µM with DU 145 (setting [2]).
For the molecule `N[C@H]1CC[C@H](Nc2nc(NCCc3ccncc3)c3ncn(C4CCCC4)c3n2)CC1` [Example 31, 2-[Trans-(4-aminocyclohexyl)amino]-6-[(4-pyridyl)-2-ethylamino]-9-cyclopentylpurine dihydrochloride], the IC50 on cdk2/cyclin E was 0.08 µM and 0.06 µM; on cdk4/cyclin D1, 0.49 µM and 1 µM; in the experiment with MDA-MB-231 (setting [1]), 7.4 µM; with MDA-MB-231 (setting [2]) it was 8.6 µM; in the experiment on MDA-MB-435 (setting [2]), 10 µM; with HT-29 (setting [3]), 10 µM. The IC50 was 7.3 µM in the experiment on HT-29 (setting [2]); 5.6 µM with Colo-205 (setting [4]); 6.6 µM with Colo-205 (setting [2]); 10 µM in the experiment with A549 (setting [5]); 5.6 µM with DMS-114 (setting [6]); 6.7 µM in the experiment on DU 145 (setting [7]). For the same molecule, the IC50 in the experiment with DU 145 (setting [2]) came out at 4.4 µM.
Consider `N[C@H]1CC[C@H](Nc2nc(NCC(F)(F)F)c3ncn(C4CCCC4)c3n2)CC1` [Example 49, 2-[Trans-(4-aminocyclohexyl)amino]-6-[2,2,2-trifluoroethylamino]-9-cyclopentylpurine dihydrochloride], for which the IC50 against cdk2/cyclin E came out at 0.09 µM; on cdk4/cyclin D1, 2.2 µM; in the experiment with MDA-MB-231 (setting [1]) it was 8.6 µM; in the experiment on MDA-MB-231 (setting [2]), 6 µM; with MDA-MB-435 (setting [8]), 10 µM; with MDA-MB-435 (setting [2]), 12 µM. Moreover, the IC50 was 7.3 µM with HT-29 (setting [3]); 6 µM in the experiment on HT-29 (setting [2]); 6.6 µM in the experiment on Colo-205 (setting [4]); 5.5 µM with Colo-205 (setting [2]); 2.2 µM in the experiment with A549 (setting [5]); 5.6 µM with DMS-114 (setting [6]). Besides, the figures for the IC50 in the experiment on DU 145 (setting [7]) and in the experiment with DU 145 (setting [2]) were 4.4 µM and 4.9 µM, respectively.
